Measurements: PubChem BioAssay (NCI)
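Grown in 96-well plates, cells were treated for 48 hours with each compound at five concentrations. Insufficient inhibition: endpoint recorded as highest concentration tested. TGI denotes the concentration required for complete inhibition of growth.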

Assays:
Assay in all cases: growth of human tumour cells (NCI), 48 h
[1] = test system: M14 melanoma
[2] = test system: U251 CNS
[3] = test system: DMS 114 small cell lung
[4] = test system: SW-620 colon
[5] = test system: SR leukemia
[6] = test system: SK-MEL-5 melanoma
[7] = test system: TK-10 renal
[8] = test system: OVCAR-8 ovarian
[9] = test system: KM12 colon
[10] = test system: HOP-92 NSCLC
[11] = test system: KM20L2 colon
[12] = test system: EKVX NSCLC
[13] = test system: UO-31 renal
[14] = test system: A549 NSCLC
[15] = test system: DLD-1 colon
[16] = test system: SN12C renal
[17] = test system: HOP-18 NSCLC
[18] = test system: SF-539 CNS
[19] = test system: SNB-75 CNS
[20] = test system: RPMI-8226 leukemia
[21] = test system: OVCAR-3 ovarian
[22] = test system: HT29 colon
[23] = test system: DMS 273 small cell lung
[24] = test system: K-562 leukemia
[25] = test system: M19-MEL melanoma
[26] = test system: LXFL 529 NSCLC
[27] = test system: NCI-H460 lung
[28] = test system: MALME-3M melanoma
[29] = test system: HCC-2998 colon
[30] = test system: NCI-H226 lung
[31] = test system: UACC-62 melanoma
[32] = test system: NCI-H23 lung
[33] = test system: UACC-257 melanoma
[34] = test system: SF-268 CNS
[35] = test system: CAKI-1 renal
[36] = test system: HL-60(TB) leukemia
[37] = test system: SK-MEL-28 melanoma
[38] = test system: OVCAR-4 ovarian
[39] = test system: HCT-116 colon
[40] = test system: SNB-19 CNS
[41] = test system: HOP-62 NSCLC
[42] = test system: HCT-15 colon
[43] = test system: ACHN renal
[44] = test system: 786-0 renal
[45] = test system: XF 498 CNS
[46] = test system: RXF 393 renal
[47] = test system: NCI-H522 lung
[48] = test system: SF-295 CNS
[49] = test system: CCRF-CEM leukemia
[50] = test system: MOLT-4 leukemia
[51] = test system: RXF-631 renal
[52] = test system: COLO 205 colon

Measured: TGI

CCCN(CCCCC(NC(C)=O)C(=O)NCc1ccccc1)C(=O)NCCCl (configuration not stated)
> 100 µM: [1] | [2] | [3] | [4] | [5] | [6] | [7] | [8] | [9] | [10] | [11] | [12] | [13] | [14] | [15] | [16] | [17] | [18] | [19] | [20] | [21] | [22] | [23] | [24] | [25] | [26] | [27] | [28] | [29] | [30] | [31] | [32] | [33] | [34] | [35] | [36] | [37] | [38] | [39] | [40] | [41] | [42] | [43] | [44] | [45] | [46] | [47] | [48] | [49] | [50] | [51] | [52]
